The record followed here is patent US4691046A, “Butanedioic acid mono [(2-dimethylamino] ethyl ester)succinate” (Institut Organicheskoi Khimii Ordena Lenina I Ordena …, priority 1986, dated 1987).

Experiment [1] in a line: Stresso-protective activity, motion stress in slowly rotating drum for 48 hours. In kind it is in vivo, rats. The note with it: 48 h motion stress, 10 mg/kg i.p. four times (invention, ester). Here is the method: In evaluation of the stresso-protective activity of the compound according to the present invention as a model use was made of a procedure of depriving rats of sleep, meals and water in a slowly rotating drum (at the speed of 0.2 km/h).
The experiments were carried out on 42 nondescript male rats. In parallel experiments the antistress activity of butanedioic acid mono[(2-dimethylamino)ethyl ester] was studied; as the reference prepartion use was made of the prior art tranquilizer--diazepam which was used in the experiments for this very indication.
4 groups of animals were tested in parallel. Groups I and II were placed for 48 hours into a slowly rotating drum, groups III and IV were under normal conditions and were deprived only of meals and water. The compound according to the present invention and butanedioic acid mono[(2-dimethylamino)ethyl ester] were administered intraperitoneally in the dose of 10 mg/kg four times (2 times a day) in the volume of 2.5 ml/kg under the conditions of motion stress (Group I of the animals) and under normal conditions (Group III of animals). The control animals--Group II (active control) and Group IV (passive control) were given a physiological solution. The efficiency of the compound according to the present invention, of butanedioic acid mono[(2-dimethylamino)ethyl ester] and of diazepam was estimated on the basis of a set of characteristics showing the functional activity of the central nervous system, physical fitness and development of basic symptoms of the stress-syndrome.
The residence of control rats in a slowly-rotating drum over 48 hours results in a noticeable deterioration of all the studied characteristics, especially those of higher nervous activity (learning) and development of stress-syndrome. The state of control animals was characterized by lowering of the overall behavioural activity as determined by the "open-field" test (37±15%) with reference to the passive control level, by a reduction in the speed of development of a conventional avoiding response in an aqueous labyrinth (58±15%), by an increase in the number of mistakes during the teaching time (175±25%), lowering of the ultimate physical endurance as determined by the swimming-with-load test (the load is equal to 10% by mass of the body (70±17%), adrenal hypertrophy (146±16%), thymus atrophy (49±9%) and formation of ulcers on the stomach mucous membrane (5.25±1.0%).

The nature of experiment [2]: Survival of mice on acute cooling. The experiment is classed as in vivo. To be noted: i.p. 1 hour before, 80 mg/kg (invention), 64 mg/kg (ester), 17 mg/kg (sodium succinate). The procedure:
The activity of the compound according to the present invention was studied in experiments on animals. The effectivemess of the compound according to the present invention was studied for resistance against an acute cold effect in comparison with conventional preparations such as butanedioic acid mono[(2-dimethylamino)ethyl ester] and sodium succinate.
The experiments were carried out on male mice (tetrahybdrids) with a body mass of 18-20 g which were placed into a cold chamber at a temperature of -15t to -17° C. in separate plastic cages slightly limiting their activity. […] The preparations were administered intraperiotoneally 1 hour before the cold effect the control animals were administered with a physiological solution.

For the compound `CN1C(=O)CN=C(c2ccccc2)c2cc(Cl)ccc21` [Diazepam, diazepam], the “Weight coefficient of thymus” value in experiment [1] (control 0.95 ± 0.18) is recorded as 2.26 g/kg of the initial body mass. For the same compound, in experiment [1] (control 1.246 ± 0.028), the “Weight coefficient of adrenal glands” value is on record as 1.010 g/kg of the initial body mass. Besides, the “Number of attempts till reaching the learning criterion (water labyrinth)” value in experiment [1] (control 4.75 ± 0.5) is listed as 7.25. In addition, the “Number of ulcers on the stomach mucous membrane” value in experiment [1] (control 5.25 ± 1.0) worked out at 1.0. This compound also gave a Duration of swimming in experiment [1] (control 244 ± 26) of 210 s.
For the compound `O=C(O)CCC(=O)O` [Sodium succinate, sodium succinate], in experiment [2] (1 hour of cold at -15 to -17° C.), the “Survival, %, 1 hour” value is listed as 100%. In experiment [2] (2 hours of cold at -15 to -17° C.), the “Survival, %, 2 hours” value stood at 80%. In addition, in experiment [2] (3 hours of cold at -15 to -17° C.), the “Survival, %, 3 hours” value worked out at 70%. In experiment [2] (4 hours of cold at -15 to -17° C.), the “Survival, %, 4 hours” value was determined as 40%. The “Survival, %, 5 hours” value in experiment [2] (5 hours of cold at -15 to -17° C.) came out at 10%. Further, in experiment [2] (6 hours of cold at -15 to -17° C.), the “Survival, %, 6 hours” value worked out at 0%.
